In brackets after ≈: the same amount, converted by molar mass. Where two headings read alike, the source gives them in different places.

Common to all, as to type: cell-based
Assay [1] deals with Staphylococcus aureus (MRSA, ATCC 33591). Kind of assay: Antibacterial test (MIC), comparison bacteria. Particulars: Gram positive; for MIC: read-out: minimum inhibitory concentration (MIC). The procedure: (§1) ATCC43504 which was a standard bacterial strain was used as Helicobacter pylori (H. pylori) to perform the test in vitro in a Columbia agar medium. The bacteria were cultured at 37° C. and a pH of 7.0 for three days. The minimum inhibitory concentration (MIC, μg/ml) was found on the fourth day. Each sample was dissolved in 1% DMSO to use. […] As bacteria for comparison, Gram negative bacteria, for example, E. coli (ATCC 10536 ATCC 25922), Klebsiella pneumonia (ATCC 10031), Proteus vulgaris (ATCC 13315), Pseudomonas aeruginosa (ATCC 9027) and Salmonella typhimurium (ATCC 13311) were used and Gram positive bacteria, for example, Staphylococcus aureus, MRSA (ATCC 33591), Staphylococcus epidermidis (ATCC 12228), Streptococcus pneumonia (ATCC 6301), Mycobacterium ranae (ATCC 110) and Enterococcus faecalis (VRE, ATCC 51575) were used.
(§2) The values in each table show minimum inhibitory concentrations (MIC, μg/ml).

Assay [2] has as its system Staphylococcus epidermidis (ATCC 12228). Kind of assay: Antibacterial test (MIC), comparison bacteria. The note with it: for MIC: ATCC12228, Gram positive, read-out: minimum inhibitory concentration (MIC); for minimum inhibitory concentration (MIC): Gram positive. As for the experimental part:
as §1, §2

Assay [3] deals with Escherichia coli (ATCC 10536). Kind of assay: Antibacterial test (MIC), comparison bacteria. The note with it: for MIC: ATCC10536, Gram negative, read-out: minimum inhibitory concentration (MIC); for minimum inhibitory concentration (MIC): Gram negative. As for the experimental part: as §1, §2
Assay [4] concerns Streptococcus pneumonia (ATCC 6301). Kind of assay: Antibacterial test (MIC), comparison bacteria. The note with it: for MIC: Streptococcus pneumoniae, ATCC6301, Gram positive, read-out: minimum inhibitory concentration (MIC); for minimum inhibitory concentration (MIC): Gram positive. As for the experimental part:
as §1, §2

For assay [5], the system named is Mycobacterium ranae (ATCC 110). As to the kind of experiment: Antibacterial test (MIC), comparison bacteria. Particulars: for MIC: ATCC110, Gram positive, read-out: minimum inhibitory concentration (MIC); for minimum inhibitory concentration (MIC): Gram positive. As for the experimental part:
as §1, §2

Assay [6] deals with Klebsiella pneumonia (ATCC 10031). Kind of assay: Antibacterial test (MIC), comparison bacteria. Particulars: for MIC: Klebsiella pneumoniae, ATCC10031, Gram negative, read-out: minimum inhibitory concentration (MIC); for minimum inhibitory concentration (MIC): Gram negative. As for the experimental part: as §1, §2
The subject of assay [7] is Escherichia coli (ATCC 25922). As to the kind of experiment: Antibacterial test (MIC), comparison bacteria. Particulars: for MIC: ATCC25922, Gram negative, read-out: minimum inhibitory concentration (MIC); for minimum inhibitory concentration (MIC): Gram negative. As for the experimental part: as §1, §2
Assay [8] deals with Proteus vulgaris (ATCC 13315). As to the kind of experiment: Antibacterial test (MIC), comparison bacteria. Particulars: for MIC: ATCC13315, Gram negative, read-out: minimum inhibitory concentration (MIC); for minimum inhibitory concentration (MIC): Gram negative. The procedure:
as §1, §2

Assay [9] relates to Pseudomonas aeruginosa (ATCC 9027). As to the kind of experiment: Antibacterial test (MIC), comparison bacteria. Particulars: for MIC: ATCC9027, Gram negative, read-out: minimum inhibitory concentration (MIC); for minimum inhibitory concentration (MIC): Gram negative. The procedure: as §1, §2
Assay [10] relates to Enterococcus faecalis (VRE, ATCC 51575). Kind of assay: Antibacterial test (MIC), comparison bacteria. Particulars: Gram positive; for MIC: read-out: minimum inhibitory concentration (MIC). The procedure: as §1, §2
Assay [11] deals with Salmonella typhimurium (ATCC 13311). Kind of assay: Antibacterial test (MIC), comparison bacteria. Particulars: Gram negative; for MIC: Salmonella enterica, read-out: minimum inhibitory concentration (MIC). As for the experimental part:
as §1, §2

The subject of assay [12] is Helicobacter pylori (ATCC 43504). As to the kind of experiment: Antibacterial test (MIC) against Helicobacter pylori. The note with it: for MIC: Helicobacter pylori; for minimum inhibitory concentration (MIC): Helicobacter pylori ATCC 43504. As for the experimental part: as §1, §2
Setting [13] is: ATCC43504, 72 h, pH 7, Helicobacter pylori ATCC 43504, Columbia agar medium, 37° C., pH 7.0, cultured three days, MIC found on the fourth day, read-out: minimum inhibitory concentration (MIC).
The mark [14] stands for this setting: Columbia agar medium, 37° C., pH 7.0, cultured three days, MIC found on the fourth day.

For `Cc1c(OCCCCCCCCO)ccnc1SCc1nc2ccccc2[nH]1` [Example 13, 2-[[[4-(8-hydroxy-1-octyloxy)-3-methyl-2-pyridyl]thio]-methyl]-1H-benzimidazole], the MIC in assay [1], in assay [2], in assay [3], in [4], in assay [5] and in assay [6] was over 100 µg/mL in each case. Further, the MIC in assay [7] is over 100 µg/mL; in assay [8] it was over 100 µg/mL; in assay [9], over 100 µg/mL; in [10] it was over 100 µg/mL; in assay [11] it was over 100 µg/mL; in assay [12] (summary of Tables 2 and 3), 0.003 µg.
Regarding `COCCCCCCCCSc1ccnc(SCc2nc3ccccc3[nH]2)c1C.Cl` [Example 3, 2-[[[4-[(8-methoxy-1-octyl]thio]-3-methyl-2-pyridyl]thio]methyl]-1H-benzimidazole hydrochloride], the MIC in assay [1], in assay [2], in assay [3], in [4], in [5] and in [6] was over 100 µg/mL each time. The MIC is over 100 µg/mL in assay [7]; over 100 µg/mL in assay [8]; over 100 µg/mL in [9]; over 100 µg/mL in [10]; over 100 µg/mL in assay [11]; 0.1 µg/mL in assay [12] (setting [13]).
For the molecule `Cc1c(OCCOCCOCC(F)(F)F)ccnc1SCc1nc2ccccc2[nH]1.Cl` [Example 9], the “minimum inhibitory concentration (MIC)” value in assay [1], in [2], in [3], in assay [4], in assay [5] and in assay [6] was 100< μg/ml throughout. Further, the “minimum inhibitory concentration (MIC)” value in assay [7] is 100< μg/ml; in assay [8], 100< μg/ml; in assay [9], 100< μg/ml; in [10] it was 100< μg/ml; in assay [11] it was 100< μg/ml; in [12] (setting [14]), 0.3 µg/mL.
As for `CCCOc1ccnc(SCc2nc3ccccc3[nH]2)c1C.Cl` [Example 4, 2-[[(4-n-propoxy-3-methyl-2-pyridyl)thio]-methyl]-1H-benzimidazole hydrochloride], the MIC in assay [1], in assay [2], in [3], in assay [4], in assay [5] and in [6] was over 100 µg/mL in each case. For the same molecule, the MIC was over 100 µg/mL in assay [7]; over 100 µg/mL in assay [8]; over 100 µg/mL in [9]; over 100 µg/mL in assay [10]; over 100 µg/mL in assay [11]; 0.3 µg/mL in [12] (setting [13]).
With `CSc1ccnc(SCc2nc3ccccc3[nH]2)c1C.Cl` [Example 5, 2-[[(4-thiomethyl-3-methyl-2-pyridyl)thio]-methyl]-1H-benzimidazole hydrochloride], the “minimum inhibitory concentration (MIC)” value in assay [1], in assay [2], in [3], in assay [4], in assay [5] and in assay [6] was 100< μg/ml each time. The “minimum inhibitory concentration (MIC)” value in assay [7] was 100< μg/ml; in [8], 100< μg/ml; in [9], 100< μg/ml; in assay [10], 100< μg/ml; in assay [11], 100< μg/ml; in assay [12] (setting [14]) it was 3.0 µg/mL.
Consider `COCCCCCCCCOc1ccnc(SCc2nc3ccccc3[nH]2)c1C.Cl` [Example 14, 2-[[[4-(8-methoxy-1-octyloxy]-3-methyl-2-pyridyl]thio]-methyl]-1H-benzimidazole hydrochloride], for which the MIC in [1], in [2], in [3], in assay [4], in assay [5] and in assay [6] was over 100 µg/mL in each case. Further, the MIC in assay [7], in assay [8], in assay [9], in assay [10] and in assay [11] was over 100 µg/mL each time.
On to `CC1(C)S[C@@H]2[C@H](NC(=O)[C@H](N)c3ccc(O)cc3)C(=O)N2[C@H]1C(=O)O` [AMPC, Amoxicillin, reference compound], for which the “minimum inhibitory concentration (MIC)” value in assay [1] is 0.1 µg/mL (≈ 0.274 µM); in assay [4], 0.01 µg/mL (≈ 0.0274 µM); in [9], 100< μg/ml; in assay [10], 0.3 µg/mL (≈ 0.821 µM); in assay [11], 0.3 µg/mL (≈ 0.821 µM); in assay [12] (setting [14]), 0.06 µg/mL (≈ 0.164 µM).
Regarding `COCCCCSc1ccnc(SCc2nc3ccccc3[nH]2)c1C.Cl` [Example 1, 2-[[[4-[(4-methoxy-butyl]thio]-3-methyl-2-pyridyl]thio]methyl]-1H-benzimidazole hydrochloride], the MIC in assay [1], in assay [2], in [3], in assay [4], in assay [5] and in assay [6] was over 100 µg/mL in each case. In addition, the MIC in assay [7] is over 100 µg/mL; in assay [8], over 100 µg/mL; in assay [9] it was over 100 µg/mL; in [10], over 100 µg/mL; in assay [11], over 100 µg/mL; in assay [12] (setting [13]), at most 0.03 µg/mL.
`Cc1c(SCCCCCCCCO)ccnc1SCc1nc2ccccc2[nH]1` [Example 2, 2-[[[4-[(8-hydroxy-octyl)thio]-3-methyl-2-pyridyl]thio]methyl]-1H-benzimidazole]: the MIC in assay [1], in assay [2], in assay [3], in [4], in assay [5] and in assay [6] was over 100 µg/mL each time. The MIC in assay [7] was over 100 µg/mL; in [8], over 100 µg/mL; in assay [9] it was over 100 µg/mL; in assay [10], over 100 µg/mL; in assay [11], over 100 µg/mL; in [12] (summary of Tables 2 and 3), 0.003 µg.
On to `Cc1c(SCCOCCOCC(F)(F)F)ccnc1SCc1nc2ccccc2[nH]1.Cl` [Example 8], for which the “minimum inhibitory concentration (MIC)” value in [1], in [2], in [3], in assay [4], in assay [5] and in [6] was 100< μg/ml in each case. In addition, the “minimum inhibitory concentration (MIC)” value is 100< μg/ml in assay [7]; 100< μg/ml in assay [8]; 100< μg/ml in assay [9]; 100< μg/ml in assay [10]; 100< μg/ml in assay [11]; 0.1 µg/mL in [12] (setting [14]).
Turning to `CC[C@H]1OC(=O)[C@H](C)[C@@H](O[C@H]2C[C@@](C)(OC)[C@@H](O)[C@H](C)O2)[C@H](C)[C@@H](O[C@@H]2O[C@H](C)C[C@H](N(C)C)[C@H]2O)[C@](C)(OC)C[C@@H](C)C(=O)[C@H](C)[C@@H](O)[C@]1(C)O` [CAM, Clarithromycin, reference compound], the MIC was 0.1 µg/mL (≈ 0.134 µM) in assay [1]; 50 µg/mL (≈ 66.8 µM) in assay [3]; 0.02 µg/mL (≈ 0.0267 µM) in assay [4]; 50 µg/mL (≈ 66.8 µM) in assay [7]; 100 µg/mL (≈ 134 µM) in assay [8]; over 100 µg/mL in assay [9]. The results for the MIC in [10], in assay [11] and in [12] (setting [13]) were 0.1 µg/mL (≈ 0.134 µM), 25 µg/mL (≈ 33.4 µM) and 0.1 µg/mL (≈ 0.134 µM), respectively.
